Tested on: gene expression in Col-0 seedling shoots
Assay: Microarray analysis (ATH1 Affymetrix) after BL or abrasin treatment
Format: in vivo, Arabidopsis
Settings: 120 min
Protocol: FIG. 14: Clustering of gene expression profiles by QT-clust analysis. Clusters illustrating the major patterns of the data sets. Points: BIK-30: 30 μM abrasin 30 min; BL-30: 1 μM brassinolide 30 min; DMSO-30: control DMSO 30 min; BIK-120: 30 μM abrasin 120 min; BL-120: 1 μM brassinolide 120 min; DMSO-120: control DMSO 120 min.
Col-0 seeds were germinated vertically on ½ MS medium for 7 days under 16 h light/8 h dark cycles. The seedlings were overlaid with liquid ½ MS medium containing 1 μM brassinolide (BL, Fuji Chemical Industries, Ltd., Toyama, Japan), 30 μM abrasin (BIK, ChemBridge Corporation) and DMSO and treated for 30 and 120 min. The shoot parts were collected for RNA isolation. All sampling points were performed in three independent experiments. RNA was extracted using RNeasy kit (Qiagene). […] total RNA per array was used to hybridise the ATH1 Affymetrix Arabidopsis arrays according to standard procedure. The overrepresentation analyses were performed using BiNGO software (Maere et al., 2005).
We performed a microarray analysis using the Arabidopsis whole genome chip (Affymetix) to determine whether abrasin activated the expression of BR-inducible genes at transcriptional level. Wild-type Col-0 seedlings were exposed to 1 μM BL, 30 μM ABRASIN and DMSO (mock-treatment) for two time points (30 min and 120 min) and the shoot parts were collected for RNA isolation. The analysis of the variance of the normalized gene expression data took in account the variability parameters affecting the expression level: type of hormone treatment, duration of treatment and the interaction between these two.

Compound: CC(C)[C@H](C)[C@@H](O)[C@H](O)[C@@H](C)[C@H]1CC[C@H]2[C@@H]3COC(=O)[C@H]4C[C@H](O)[C@H](O)C[C@]4(C)[C@H]3CC[C@]12C [BL, brassinolide, reference compound]
- Fold-change AT4G16780 homeobox-leucine zipper protein 4 (HAT4)/HD-ZIP protein: 0.51
- Fold-change AT4G17250 expressed protein: 1.82
- Fold-change AT4G17460 homeobox-leucine zipper protein 1 (HAT1)/HD-ZIP protein 1: 0.19
- Fold-change AT4G21510 F-box family protein: 2.09
- Fold-change AT4G23030 MATE efflux protein-related: 2.20
- Fold-change AT4G23070 rhomboid family protein: 2.03
- Fold-change AT4G23810 WRKY family transcription factor: 0.55
- Fold-change AT4G24160 hydrolase, alpha/beta fold family protein: 1.14
- Fold-change AT4G25620 hydroxyproline-rich glycoprotein family protein: 0.86
- Fold-change AT4G25780 pathogenesis-related protein: 0.26
- Fold-change AT4G27970 C4-dicarboxylate transporter/malic acid transport family protein: 1.28
- Fold-change AT4G28240 wound-responsive protein-related: 0.41
- Fold-change AT4G28490 leucine-rich repeat transmembrane protein kinase, putative: 0.78
- Fold-change AT4G28703 expressed protein: 0.89
- Fold-change AT4G28780 GDSL-motif lipase/hydrolase family protein: 2.29
- Fold-change AT4G29070 expressed protein: 0.74
- Fold-change AT4G30080 transcriptional factor B3 family protein: 0.49
- Fold-change AT4G31020 expressed protein: 0.67
- Fold-change AT4G32280 auxin-responsive AUX/IAA family protein (IAA29): 0.22
- Fold-change AT4G33050 calmodulin-binding family protein: 0.57
- Fold-change AT4G33700 CBS domain-containing protein: 0.51
- Fold-change AT4G34610 homeodomain-containing protein: 0.37
- Fold-change AT4G36110 auxin-responsive protein: 7.86
- Fold-change AT4G36780 brassinosteroid signalling positive regulator-related: 0.09
- Fold-change AT4G37240 expressed protein: 2.33
- Fold-change AT4G37290 expressed protein: 0.40
- Fold-change AT4G37590 phototropic-responsive NPH3 family protein: 0.53
- Fold-change AT4G38840 auxin-responsive protein (SAUR14): 2.53
- Fold-change AT4G38850 auxin-responsive protein (SAUR-AC1): 3.03
- Fold-change AT4G38860 auxin-responsive protein (SAUR16): 3.40
- Fold-change AT4G39400 brassinosteroid insensitive 1 (BRI1): 0.57
- Fold-change AT5G02020 expressed protein: 0.96
- Fold-change AT5G05690 cytochrome P450 90A1 (CYP90A1) (CYP90) (CPD): 0.41
- Fold-change AT5G07690 myb family transcription factor (MYB29): 0.40
- Fold-change AT5G08130 basic helix-loop-helix (bHLH) family protein (BIM2): 0.42
- Fold-change AT5G12050 expressed protein: 0.34
- Fold-change AT5G13180 no apical meristem (NAM) family protein: 0.50
- Fold-change AT5G13740 sugar transporter family protein: 0.36
- Fold-change AT5G14730 expressed protein: 0.55
- Fold-change AT5G16200 50S ribosomal protein-related: 0.20
- Fold-change AT5G16980 NADP-dependent oxidoreductase: 1.26
- Fold-change AT5G18750 DNAJ heat shock N-terminal domain-containing protein: 0.56
- Fold-change AT5G19200 short-chain dehydrogenase/reductase (SDR) family protein: 2.47
- Fold-change AT5G19340 expressed protein: 0.39
- Fold-change AT5G24030 C4-dicarboxylate transporter/malic acid transport family protein: 1.90
- Fold-change AT5G24660 expressed protein: 2.26
- Fold-change AT5G25240 expressed protein: 3.69
- Fold-change AT5G25930 leucine-rich repeat family protein: 0.63
- Fold-change AT5G27350 sugar-porter family protein 1 (SFP1): 2.04
- Fold-change AT5G27670 histone H2A: 0.50
- Fold-change AT5G38310 expressed protein: 0.93
- Fold-change AT5G38990; AT5G39000 [AT5G38990, protein kinase family protein: 0.74
- Fold-change AT5G39050 transferase family protein: 0.62
- Fold-change AT5G39610 no apical meristem (NAM) family protein: 0.22
- Fold-change AT5G39970 expressed protein: 0.99
- Fold-change AT5G42830 transferase family protein: 0.62
- Fold-change AT5G47370 homeobox-leucine zipper protein 2 (HAT2): 0.87
- Fold-change AT5G48070 putative xyloglucan endotransglycosylase/hydrolase: 1.24
- Fold-change AT5G48540 33 kDa secretory protein-related: 0.55
- Fold-change AT5G51550 phosphate-responsive 1 family protein: 0.37
- Fold-change AT5G54490 calcium-binding EF-hand protein, putative: 1.75
- Fold-change AT5G54860 integral membrane transporter family protein: 0.82
- Fold-change AT5G55970 zinc finger (C3HC4-type RING finger) family protein: 1.82
- Fold-change AT5G56980 expressed protein: 0.20
- Fold-change AT5G57190 phosphatidylserine decarboxylase: 0.60
- Fold-change AT5G57780 expressed protein: 0.12
- Fold-change AT5G59080 expressed protein: 0.53
- Fold-change AT5G60200 Dof-type zinc finger domain-containing protein: 1.67
- Fold-change AT5G60270 lectin protein kinase family protein: 1.82
- Fold-change AT5G60630 expressed protein: 1.15
- Fold-change AT5G61600 encodes a member of the ERF (ethylene response factor): 2.06
- Fold-change AT5G62360 invertase/pectin methylesterase inhibitor family protein: 0.45
- Fold-change AT5G65310 homeobox-leucine zipper protein 5 (HB-5)/HD-ZIP transcription factor 5: 0.27
- Fold-change AT5G66420 expressed protein: 0.43
- Fold-change AT5G66590 allergen V5/Tpx-1-related family protein: 0.58
- Fold-change AT5G67450 zinc finger (C2H2 type) protein 1 (AZF1): 0.89
- Fold-change of gene AT4G16140 (proline-rich family protein) (245479_at, Cluster 6): 0.75
- Fold-change of gene AT4G15260 (UDP-glucoronosyl/UDP-glucosyl transferase family protein) (245543_at, Cluster 7): 0.67
- Fold-change of gene AT5G09440 (phosphate-responsive protein, putative) (245885_at, Cluster 5): 0.13
- Fold-change of gene AT1G77380 (amino acid carrier) (246389_at, Cluster 10): 0.40
- Fold-change of gene AT5G15740 (expressed protein) (246516_at, Cluster 5): 0.69
- Fold-change of gene AT5G65300 (expressed protein) (247177_at, Cluster 5): 0.36
- Fold-change of gene AT5G64890 (expressed protein) (247205_at, Cluster 10): 0.85
- Fold-change of gene AT5G63790 (no apical meristem (NAM) family protein) (247351_at, Cluster 9): 0.27
- Fold-change of gene AT5G62630 (expressed protein) (247444_at, Cluster 7): 1.26
- Fold-change of gene AT5G60850 (Dof-type zinc finger domain-containing protein) (247601_at, Cluster 10): 1.10
- Fold-change of gene AT5G59510 (expressed protein) (247704_at, Cluster 9): 0.13
- Fold-change of gene AT5G58660 (oxidoreductase. 2OG-Fe(II) oxygenase family protein) (247774_at, Cluster 5): 2.85
- Fold-change of gene AT5G54120 (expressed protein) (248190_at, Cluster 5): 0.94
- Fold-change of gene AT5G54130 (calcium-binding EF hand family protein) (248191_at, Cluster 5): 0.88
- Fold-change of gene AT5G52900 (expressed protein) (248282_at, Cluster 6): 0.50
- Fold-change of gene AT5G49100 (expressed protein) (248646_at, Cluster 9): 0.38
- Fold-change of gene AT5G18060 (auxin-responsive protein) (250012_x_at, Cluster 6): 0.28
- Fold-change of gene AT5G09800 (U-box domain-containing protein) (250493_at, Cluster 9): 0.30
- Fold-change of gene AT5G08565 (expressed protein) (250537_at, Cluster 8): 0.78
- Fold-change of gene AT5G03670 (expressed protein) (250907_at, Cluster 5): 0.37
- Fold-change of gene AT5G01740 (expressed protein) (251072_at, Cluster 5): 0.47
- Fold-change of gene AT3G63380 (calcium-transporting ATPase) (251176_at, Cluster 10): 0.10
- Fold-change of gene AT3G60690 (auxin-responsive family protein) (251342_at, Cluster 9): 0.27
- Fold-change of gene AT3G45610 (Dof-type zinc finger domain) (252586_at, Cluster 10): 1.05
- Fold-change of gene AT3G44610 (protein kinase family protein) (252646_at, Cluster 5): 1.03
- Fold-change of gene AT4G34760 (auxin-responsive family protein) (253255_at, Cluster 6): 0.62
- Fold-change of gene AT4G34138 (UDP-glucoronosyl/UDP-glucosyl transferase family protein) (253281_at, Cluster 7): 1.74
- Fold-change of gene AT4G31910 (transferase family protein) (253483_at, Cluster 5): 0.78
- Fold-change of gene AT4G30410 (expressed protein) (253617_at, Cluster 5): 0.45
- Fold-change of gene AT4G30450 (glycine-rich protein) (253629_at, Cluster 5): 0.59
- Fold-change of gene AT4G26200 (1-aminocyclopropane-1-carboxylate synthase) (253999_at, Cluster 9): 0.11
- Fold-change of gene AT4G03400 (auxin-responsive GH3 family protein) (255403_at, Cluster 6): 0.48
- Fold-change of gene AT4G02700 (sulfate transporter) (255443_at, Cluster 7): 1.20
- Fold-change of gene AT1G22190 (AP2 domain-containing transcription factor) (255926_at, Cluster 8): 0.89
- Fold-change of gene AT1G66140 (zinc finger (C2H2 type) family protein) (256528_at, Cluster 6): 0.46
- Fold-change of gene AT3G25655 (expressed protein) (256762_at, Cluster 8): 0.12
- Fold-change of gene AT3G21420 (oxidoreductase, 2OG-Fe(II) oxygenase family protein) (256818_at, Cluster 7): 1.29
- Fold-change of gene AT3G18280 (protease inhibitor/seed storage/lipid transfer protein) (257066_at, Cluster 5): 0.92
- Fold-change of gene AT1G29440 (auxin-responsive family protein) (257506_at, Cluster 6): 0.34
- Fold-change of gene AT3G29200 (chorismate mutase, chloroplast (CM1)) (257746_at, Cluster 5): 0.66
- Fold-change of gene AT1G13260 (DNA-binding protein RAV1 (RAV1)) (259364_at, Cluster 8): 0.67
- Fold-change of gene AT1G29500 (auxin-responsive protein) (259773_at, Cluster 6): 0.39
- Fold-change of gene AT1G29510 (auxin-responsive protein) (259783_at, Cluster 6): 0.36
- Fold-change of gene AT1G29450 (auxin-responsive protein) (259784_at, Cluster 6): 0.37
- Fold-change of gene AT1G29460 (auxin-responsive protein) (259787_at, Cluster 6): 0.28
- Fold-change of gene AT1G76690; AT1G76680 ([AT1G76690, 12-oxophytodienoate reductase (OPR2)) (259875_s_at, Cluster 7): 0.89
- Fold-change of gene AT1G76620 (expressed protein) (259985_at, Cluster 8): 0.37
- Fold-change of gene AT1G63720 (expressed protein) (260243_at, Cluster 10): 0.17
- Fold-change of gene AT1G48100 (glycoside hydrolase family 28 protein) (260727_at, Cluster 8): 1.16
- Fold-change of gene AT1G12200 (flavin-containing monooxygenase family protein) (261023_at, Cluster 7): 1.40
- Fold-change of gene AT1G12845 (expressed protein) (261203_at, Cluster 6): 0.47
- Fold-change of gene AT1G15550 (gibberellin 3-beta-dioxygenase) (261768_at, Cluster 6): 0.52
- Fold-change of gene AT1G80840 (WRKY family transcription factor) (261892_at, Cluster 9): 0.05
- Fold-change of gene AT1G80080 (leucine-rich repeat family protein) (262040_at, Cluster 6): 0.39
- Fold-change of gene AT1G80130 (expressed protein) (262050_at, Cluster 8): 0.36
- Fold-change of gene AT1G21680 (expressed protein) (262505_at, Cluster 10): 1.29
- Fold-change of gene AT1G34245 (expressed protein) (262543_at, Cluster 6): 0.67
- Fold-change of gene AT1G78460 (SOUL heme-binding family protein) (263126_at, Cluster 7): 1.49
- Fold-change of gene AT1G78820; AT1G78830 ([AT1G78820, curculin-like (mannose-binding) lectin family protein) (264279_s_at, Cluster 7): 0.86
- Fold-change of gene AT2G42380 (bZIP transcription factor family protein) (265877_at, Cluster 6): 0.39
- Fold-change of gene AT2G45080 (cyclin family protein) (266124_at, Cluster 8): 0.27

Reference: patent US8273775B2, “Non-steroidal brassinosteroid mimetic” (priority 2006, dated 2012)
